Common to all, as to assay: KINOMEscan competition binding
Holding throughout (conditions): compound 10.0 µM

The subject of test [1] is ABL1 (human), P00519 [F317I].
The test system of test [2] is ABL1 (human), P00519 [F317L].
Test [3] concerns BMX (human), P51813 [V600E].
For test [4], the system named is EGFR (human), P00533 [A750P; 747-749 del].
Test [5] has as its system EGFR (human), P00533 [G719C].
Test [6] has as its system EGFR (human), P00533 [L858R].
Test [7] relates to FGFR3 (human), P22607 [G697C].
For test [8], the system named is FLT3 (human), P36888 [D835Y].
For test [9], the system named is PIK3CA (human), P42336 [E542K].
The test system of test [10] is PIK3CA (human), P42336 [H1047L].
Test [11] deals with RET (human), P07949 [V804L].
Test [12] deals with MET (human), P08581 [M1250T].
Test [13] deals with PIK3CA (human), P42336 [M1043I].
In test [14] the test system is LRRK2 (human), Q5S007 [G2019S].
Test [15] relates to KIT (human), P10721 [A829P].

Chain of PIK3CA (human), P42336 [M1043I] (P42336 whole entry M1043I, looked up): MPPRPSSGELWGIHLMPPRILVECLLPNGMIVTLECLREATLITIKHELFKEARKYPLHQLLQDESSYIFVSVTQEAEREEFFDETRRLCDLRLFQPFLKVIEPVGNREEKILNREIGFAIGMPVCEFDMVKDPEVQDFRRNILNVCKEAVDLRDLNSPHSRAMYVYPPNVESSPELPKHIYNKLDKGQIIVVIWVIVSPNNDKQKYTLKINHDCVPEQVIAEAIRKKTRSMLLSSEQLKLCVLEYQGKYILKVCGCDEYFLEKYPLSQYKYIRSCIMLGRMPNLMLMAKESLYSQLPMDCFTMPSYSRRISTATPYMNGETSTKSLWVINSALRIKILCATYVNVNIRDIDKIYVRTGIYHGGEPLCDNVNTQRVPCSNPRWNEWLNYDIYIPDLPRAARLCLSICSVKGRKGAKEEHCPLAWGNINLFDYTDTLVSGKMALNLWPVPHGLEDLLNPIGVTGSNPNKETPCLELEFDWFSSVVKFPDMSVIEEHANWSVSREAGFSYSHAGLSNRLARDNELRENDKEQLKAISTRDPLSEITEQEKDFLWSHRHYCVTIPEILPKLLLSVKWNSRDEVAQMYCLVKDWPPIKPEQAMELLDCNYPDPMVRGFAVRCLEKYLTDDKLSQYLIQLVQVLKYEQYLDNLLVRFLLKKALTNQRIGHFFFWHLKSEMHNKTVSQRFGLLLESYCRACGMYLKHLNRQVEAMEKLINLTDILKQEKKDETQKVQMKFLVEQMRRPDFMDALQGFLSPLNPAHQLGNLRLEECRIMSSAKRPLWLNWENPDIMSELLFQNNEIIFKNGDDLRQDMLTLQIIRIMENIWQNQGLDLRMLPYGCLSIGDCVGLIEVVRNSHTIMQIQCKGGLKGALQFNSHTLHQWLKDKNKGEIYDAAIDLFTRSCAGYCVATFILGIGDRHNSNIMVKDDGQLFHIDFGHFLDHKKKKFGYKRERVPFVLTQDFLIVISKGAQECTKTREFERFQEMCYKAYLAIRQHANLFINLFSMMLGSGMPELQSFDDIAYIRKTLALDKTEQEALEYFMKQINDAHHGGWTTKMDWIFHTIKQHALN
Chain of ABL1 (human), P00519 [F317L] (P00519 whole entry F317L, looked up): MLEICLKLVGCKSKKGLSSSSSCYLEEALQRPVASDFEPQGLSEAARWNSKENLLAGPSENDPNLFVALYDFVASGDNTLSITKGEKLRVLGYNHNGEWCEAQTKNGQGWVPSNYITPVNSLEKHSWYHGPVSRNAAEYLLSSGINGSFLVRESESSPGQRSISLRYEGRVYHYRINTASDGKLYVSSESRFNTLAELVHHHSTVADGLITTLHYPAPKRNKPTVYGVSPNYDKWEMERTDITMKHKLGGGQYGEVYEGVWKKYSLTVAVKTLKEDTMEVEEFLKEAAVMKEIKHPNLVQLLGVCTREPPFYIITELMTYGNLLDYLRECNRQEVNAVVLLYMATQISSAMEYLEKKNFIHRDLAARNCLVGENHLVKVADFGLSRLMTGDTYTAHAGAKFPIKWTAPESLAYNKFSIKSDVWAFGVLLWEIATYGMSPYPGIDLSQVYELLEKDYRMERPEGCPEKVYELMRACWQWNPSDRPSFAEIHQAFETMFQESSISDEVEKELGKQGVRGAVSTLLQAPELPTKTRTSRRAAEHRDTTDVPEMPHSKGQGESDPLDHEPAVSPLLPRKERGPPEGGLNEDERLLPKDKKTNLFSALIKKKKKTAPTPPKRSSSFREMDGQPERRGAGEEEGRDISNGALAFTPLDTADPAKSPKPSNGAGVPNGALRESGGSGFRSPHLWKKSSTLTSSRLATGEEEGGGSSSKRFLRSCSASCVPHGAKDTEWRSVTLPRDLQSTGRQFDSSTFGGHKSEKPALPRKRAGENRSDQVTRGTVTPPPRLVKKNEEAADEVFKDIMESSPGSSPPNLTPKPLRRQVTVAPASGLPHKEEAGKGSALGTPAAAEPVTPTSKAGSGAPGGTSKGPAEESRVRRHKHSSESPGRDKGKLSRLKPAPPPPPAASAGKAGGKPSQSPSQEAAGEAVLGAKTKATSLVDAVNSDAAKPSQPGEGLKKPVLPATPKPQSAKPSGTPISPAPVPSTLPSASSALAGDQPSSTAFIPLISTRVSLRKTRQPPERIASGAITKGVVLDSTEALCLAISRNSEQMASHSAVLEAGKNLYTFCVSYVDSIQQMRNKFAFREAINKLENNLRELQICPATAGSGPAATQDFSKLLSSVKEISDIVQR
Chain of PIK3CA (human), P42336 [H1047L] (P42336 whole entry H1047L, looked up): as the sequence (P42336 whole entry M1043I, looked up) above, with I1043M, H1047L counted along it
Chain of PIK3CA (human), P42336 [E542K] (P42336 whole entry E542K, looked up): as the sequence (P42336 whole entry M1043I, looked up) above, with E542K, I1043M counted along it
Chain of FGFR3 (human), P22607 [G697C] (P22607 whole entry G697C, looked up): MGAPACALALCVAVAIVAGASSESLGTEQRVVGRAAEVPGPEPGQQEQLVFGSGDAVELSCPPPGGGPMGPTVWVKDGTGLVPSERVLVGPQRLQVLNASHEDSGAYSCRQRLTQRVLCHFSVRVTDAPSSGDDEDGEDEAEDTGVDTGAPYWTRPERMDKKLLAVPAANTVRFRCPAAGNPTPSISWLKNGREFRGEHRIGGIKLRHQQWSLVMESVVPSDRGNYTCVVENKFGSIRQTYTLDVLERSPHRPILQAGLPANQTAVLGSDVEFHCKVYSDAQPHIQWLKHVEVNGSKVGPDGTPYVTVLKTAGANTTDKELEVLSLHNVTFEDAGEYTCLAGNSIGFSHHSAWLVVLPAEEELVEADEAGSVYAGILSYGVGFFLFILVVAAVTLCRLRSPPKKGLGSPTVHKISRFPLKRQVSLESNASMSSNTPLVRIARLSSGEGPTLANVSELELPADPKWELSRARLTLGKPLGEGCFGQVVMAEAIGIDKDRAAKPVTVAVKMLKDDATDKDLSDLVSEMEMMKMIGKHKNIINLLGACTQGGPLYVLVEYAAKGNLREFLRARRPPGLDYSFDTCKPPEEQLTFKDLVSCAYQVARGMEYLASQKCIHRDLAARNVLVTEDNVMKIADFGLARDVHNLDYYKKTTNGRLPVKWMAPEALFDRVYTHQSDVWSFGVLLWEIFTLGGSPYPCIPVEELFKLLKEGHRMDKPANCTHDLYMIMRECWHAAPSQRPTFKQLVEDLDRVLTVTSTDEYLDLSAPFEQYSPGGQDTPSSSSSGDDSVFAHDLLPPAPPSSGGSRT
Chain of BMX (human), P51813 [V600E] (P51813 whole entry, looked up, stated change not applied): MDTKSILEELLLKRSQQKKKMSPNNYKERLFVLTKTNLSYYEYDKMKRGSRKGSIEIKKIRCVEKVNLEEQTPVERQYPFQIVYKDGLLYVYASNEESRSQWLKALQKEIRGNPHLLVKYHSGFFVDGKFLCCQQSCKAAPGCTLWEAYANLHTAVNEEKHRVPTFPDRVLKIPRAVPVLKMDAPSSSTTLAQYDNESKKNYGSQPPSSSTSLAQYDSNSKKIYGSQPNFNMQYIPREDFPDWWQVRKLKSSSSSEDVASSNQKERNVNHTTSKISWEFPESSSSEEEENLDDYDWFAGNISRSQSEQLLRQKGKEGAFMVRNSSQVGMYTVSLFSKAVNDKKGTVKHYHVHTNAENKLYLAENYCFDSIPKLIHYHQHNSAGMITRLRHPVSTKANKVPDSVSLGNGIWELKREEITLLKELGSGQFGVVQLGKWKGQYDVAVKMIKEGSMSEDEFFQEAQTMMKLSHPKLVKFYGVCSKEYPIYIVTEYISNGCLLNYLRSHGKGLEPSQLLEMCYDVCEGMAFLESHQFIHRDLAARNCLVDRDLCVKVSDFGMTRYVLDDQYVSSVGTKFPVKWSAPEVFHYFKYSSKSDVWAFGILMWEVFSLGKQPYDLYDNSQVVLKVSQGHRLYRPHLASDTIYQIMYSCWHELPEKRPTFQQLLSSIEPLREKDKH
Chain of RET (human), P07949 [V804L] (P07949 whole entry V804L, looked up): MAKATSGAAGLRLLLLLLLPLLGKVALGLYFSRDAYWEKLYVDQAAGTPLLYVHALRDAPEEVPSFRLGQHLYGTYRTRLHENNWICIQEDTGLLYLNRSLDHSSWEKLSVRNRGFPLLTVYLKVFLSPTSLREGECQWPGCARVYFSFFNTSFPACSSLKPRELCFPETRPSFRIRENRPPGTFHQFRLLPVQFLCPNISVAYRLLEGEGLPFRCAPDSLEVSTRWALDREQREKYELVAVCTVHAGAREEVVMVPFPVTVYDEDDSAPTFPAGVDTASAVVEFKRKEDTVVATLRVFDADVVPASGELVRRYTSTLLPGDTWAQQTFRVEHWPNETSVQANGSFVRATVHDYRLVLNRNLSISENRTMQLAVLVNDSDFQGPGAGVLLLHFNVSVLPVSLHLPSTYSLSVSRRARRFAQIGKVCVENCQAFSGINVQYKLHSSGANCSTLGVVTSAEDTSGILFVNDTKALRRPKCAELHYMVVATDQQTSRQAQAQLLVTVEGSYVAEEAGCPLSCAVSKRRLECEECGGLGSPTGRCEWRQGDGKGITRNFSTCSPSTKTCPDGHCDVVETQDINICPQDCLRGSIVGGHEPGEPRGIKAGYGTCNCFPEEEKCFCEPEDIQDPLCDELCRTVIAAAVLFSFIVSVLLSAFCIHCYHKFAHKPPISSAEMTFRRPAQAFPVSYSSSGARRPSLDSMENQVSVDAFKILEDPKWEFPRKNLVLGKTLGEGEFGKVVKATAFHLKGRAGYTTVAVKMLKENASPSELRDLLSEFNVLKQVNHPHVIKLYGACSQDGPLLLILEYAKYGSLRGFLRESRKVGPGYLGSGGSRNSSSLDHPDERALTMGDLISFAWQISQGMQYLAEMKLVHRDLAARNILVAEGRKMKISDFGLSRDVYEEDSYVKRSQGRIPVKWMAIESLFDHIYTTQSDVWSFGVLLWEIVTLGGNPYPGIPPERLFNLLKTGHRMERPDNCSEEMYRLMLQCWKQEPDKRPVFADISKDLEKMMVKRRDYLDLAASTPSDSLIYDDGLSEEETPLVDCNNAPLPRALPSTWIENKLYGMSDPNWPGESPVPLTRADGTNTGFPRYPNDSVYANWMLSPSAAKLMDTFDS
Chain of ABL1 (human), P00519 [F317I] (P00519 whole entry F317I, looked up): as the sequence (P00519 whole entry F317L, looked up) above, with L317I counted along it

For `Cn1c(=O)n(-c2ccc(C(C)(C)C#N)cc2)c2c3cc(-c4cnc5ccccc5c4)ccc3ncc21`, the kinase still bound, per cent of control in [1], in test [2], in [3], in test [4], in test [5] and in [6] was 100% throughout. The kinase still bound, per cent of control in test [7] is 100%; in [8], 12%; in [9], 2.8%; in test [10], 4.8%; in [11] it was 100%.
Consider `OCCCNc1cc(-c2ccnc(Nc3cccc(Cl)c3)n2)ccn1`, for which the kinase still bound, per cent of control in test [1], in test [2], in test [3], in test [4], in [5] and in [6] was 100% each time. In addition, the kinase still bound, per cent of control in test [7] was 100%; in test [8], 19%; in test [12], 100%; in test [9] it was 100%; in test [10], 100%; in test [13], 100%. In test [11], this compound had a kinase still bound, per cent of control of 100%.
Regarding `C=CC(=O)Nc1ccc(CN(C(=O)Nc2c(Cl)c(OC)cc(OC)c2Cl)c2cc(Nc3ccc(N4CCN(C)CC4)cc3)ncn2)cc1`, the kinase still bound, per cent of control turned out to be 100% in [1]; 100% in [2]; 100% in test [3]; 0.55% in test [4]; 0.1% in [5]; 0.2% in [6]. Further, the kinase still bound, per cent of control in [7] came out at 1.4%; in test [8], 100%; in test [11], 100%.
In the case of `CNC(=O)c1ccc(Nc2cc(Nc3ccccc3S(=O)(=O)C(C)C)c3cc[nH]c3n2)nc1`, the kinase still bound, per cent of control worked out at 30% in test [1]; 28% in test [2]; 100% in test [3]; 100% in test [4]; 100% in test [5]; 100% in test [6]. Besides, the kinase still bound, per cent of control worked out at 20% in [7], 0.1% in test [8] and 0.2% in [11].
As for `CCC(=O)N1CCN(c2ccc(-n3c(=O)ccc4cnc5ccc(-c6cnc7ccccc7c6)cc5c43)cc2C(F)(F)F)CC1`, the kinase still bound, per cent of control in test [1] amounted to 100%; in [2], 100%; in test [3], 88%; in [4], 100%; in [6], 100%; in test [8] it was 16%. The kinase still bound, per cent of control in [14] stood at 99%; in test [12], 79%; in [9], 1%; in test [10] it was 2.6%; in test [13], 8.6%; in test [11], 66%.
In the case of `CCN(CC)CCCCNc1ncc2c(n1)N(C)C(=O)N(c1c(Cl)c(OC)cc(OC)c1Cl)C2`, the kinase still bound, per cent of control in [1], in test [2], in test [3], in test [4], in test [5] and in test [6] was 100% each time. Moreover, the kinase still bound, per cent of control in test [7] is 1.3%; in [8] it was 100%; in test [12], 100%; in test [9] it was 100%; in [10], 100%; in [13] it was 100%. This compound came in with a kinase still bound, per cent of control in test [11] of 100%.
Turning to `COc1cc(N2CCN(C)CC2)ccc1Nc1ncc2c(n1)N(C)c1ccccc1C(=O)N2C`, the kinase still bound, per cent of control in [1] was determined as 5%; in [2], 17%; in test [3], 100%; in test [4], 100%; in [5], 100%; in [6], 100%. In addition, the kinase still bound, per cent of control in [7], in [8], in [12], in test [9], in test [10] and in [13] was 100% each time. In [11], this compound registered a kinase still bound, per cent of control of 100%.
Take `Cc1ccc(C(=O)Nc2cccc(C(F)(F)F)c2)cc1Nc1cncc(C(N)=O)c1`: the kinase still bound, per cent of control came to 13% in test [1]; 22% in test [2]; 0.15% in [3]; 100% in [4]; 100% in test [5]; 100% in test [6]. In addition, the kinase still bound, per cent of control in [7], in [8] and in test [11] was 100% each time.
For the compound `COc1cc2ncn(-c3cc(OCc4ccccc4C(F)(F)F)c(C(N)=O)s3)c2cc1OC`, the kinase still bound, per cent of control in test [1] turned out to be 100%; in test [2] it was 70%; in test [3], 92%; in [4], 50%; in [5] it was 94%; in [6], 47%. The kinase still bound, per cent of control in test [7] came out at 26%; in [8], 26%; in test [15], 57%; in test [14], 60%; in test [12], 31%; in test [9] it was 100%. Besides, the kinase still bound, per cent of control in [10] was found to be 73%; in test [11] it was 24%.
In the case of `COc1cc(C(=O)NC2CCN(C)CC2)ccc1Nc1ncc2c(n1)N(C1CCCC1)CCC(=O)N2C(C)C`, the kinase still bound, per cent of control in test [1], in [2], in test [3], in test [4], in [5] and in [6] was 100% throughout. In addition, the kinase still bound, per cent of control in [7], in test [8], in test [12], in test [9], in test [10] and in test [13] was 100% in each case. In addition, the kinase still bound, per cent of control in test [11] came to 0%.
On to `C=CC(=O)Nc1cccc(Oc2nc(Nc3ccc(N4CCN(C)CC4)cc3OC)ncc2Cl)c1`, for which the kinase still bound, per cent of control in test [1] was determined as 100%; in test [2] it was 100%; in test [3], 100%; in test [4], 0.05%; in [5], 0.35%; in test [6], 0.1%. In addition, the kinase still bound, per cent of control stood at 100% in [7], 0.8% in test [8] and 100% in [11].
As to `CS(=O)(=O)N1CCN(Cc2cc3nc(-c4cccc5[nH]ncc45)nc(N4CCOCC4)c3s2)CC1`, the kinase still bound, per cent of control in [1], in test [2], in test [3], in test [4], in test [5] and in test [6] was 100% each time. The kinase still bound, per cent of control in [7] worked out at 100%; in test [8], 100%; in test [12] it was 100%; in test [9] it was 0.45%; in [10], 9.8%; in test [13] it was 19%. The same compound yielded a kinase still bound, per cent of control in test [11] of 100%.

For the origin of these results see the kinase profiling compilation of Christmann-Franck et al. (2016).
